Data reported in patent publication US9211296B2, “Therapeutic compounds for blocking DNA synthesis of POX viruses” (priority 2007, dated 2015).
Read-outs that look alike come from different tables or passages of the source.

What was measured:
[1] = target: vaccinia virus DNA synthesis (viral DNA polymerase and its associated factors) (Vaccinia virus, UniProt P06856); format: biochemical
vaccinia virus WR [2] = assay: microbe, parasite or virus in culture; format: cell-based
vaccinia virus WR [3] = assay: microbe, parasite or virus in culture; format: cell-based; remark: listed apart in the source
vaccinia virus WR [4] = format: cell-based
BS-C-1 cells = assay: WST-1 cytotoxicity assay; conditions: for tox 20 h TC50 / tox 120 h TC50 / tox 72 h TC50: Table 6; for CC50: Table 4
vaccinia virus = format: cell-based
[5] = read-out: DNA Synthesis Inhibition IC50
[6] = Orthopoxvirus vaccinia, 20 h, read-out: Cell Protection 20 h EC50
[7] = Orthopoxvirus vaccinia, BSC-1, 20 h, read-out: cell prot EC50
[8] = Orthopoxvirus vaccinia, 20 h, read-out: Plaque Reduction 20 h EC50
[9] = Orthopoxvirus vaccinia, BSC-1, 20 h, read-out: plaque red EC50
[10] = read-out: Cytotoxicity 20 h CC50, 20 h
[11] = read-out: Cytotoxicity 120 h CC50, 120 h
[12] = read-out: Cytotoxicity 72 h CC50, 72 h
Throughout, for Blocking the replication of vaccinia virus in cells: test concentration or dose not given here.

Structure (SMILES)	IC50 [1, 5] [µM]	IC50 ([1]; read-out: DNA synth IC50) [µM]	Selectivity Index SI (vaccinia virus WR [2])	selectivity index (vaccinia virus WR [2])	EC50 (vaccinia virus WR [2]; [6]) [µM]	EC50 (vaccinia virus WR [2]; [7]) [µM]	EC50 (vaccinia virus WR [3]; [8]) [µM]	EC50 (vaccinia virus WR [3]; [9]) [µM]	Effect of dsDNA (vaccinia virus WR [4])	trapped by dsDNA (vaccinia virus WR [4])	tox 20 h TC50 (BS-C-1 cells; 20 h) [µM]	tox 120 h TC50 (BS-C-1 cells; 120 h) [µM]	CC50 (BS-C-1 cells; [10]) [µM]	CC50 (BS-C-1 cells; [11]) [µM]	Blocking the replication of vaccinia virus in cells (vaccinia virus)	other results
Cc1csc2c(N3CCN(C(=O)NC(C)(C)C)CC3)ncnc12 [Compound 4]	12	12	3.1	3.1	50	50	15	15	No	no	157	40	157	40		
CCNc1nc(SCc2ccc(Cl)cc2)nc2sc3c(c12)CCN(C)C3 [Compound 5]	129	129	2.6	2.6	45	42	15	15	No	no	155	5	115	5		
CC[n+]1c(-c2ccccc2)c2cc(N)ccc2c2ccc(N)cc21 [Ethidium, reference compound]					100				Yes							
CC(=O)n1c2ccccc2c2nc(C)sc21 [Compound 15]	111	111	>1	>1	236	236	100	100	No	no	>200	75	> 200	75		tox 72 h TC50 (BS-C-1 cells; 72 h): >200 µM; CC50 (BS-C-1 cells; [12]): > 200 µM
Nc1ccn([C@@H]2O[C@H](CO)[C@@H](O)[C@@H]2O)c(=O)n1 [Ara-C, reference compound]									Yes				16			EC50 (vaccinia virus WR [2]; read-out: Cell Protection 20 h EC50): 0.24 µM; EC50 (vaccinia virus WR [3]; read-out: Plaque Reduction 20 h EC50): 0.5 µM
Cc1ccc2c(Sc3ccc(Cl)cc3)c(C(=O)O)[nH]c2c1 [Compound 11]	43	43	>1.5	>1.5	130	130	75	75	No	no	>200	120	> 200	120		tox 72 h TC50 (BS-C-1 cells; 72 h): 174 µM; CC50 (BS-C-1 cells; [12]): 174 µM
C[C@@]1(CO)[C@H](O)CC[C@@]2(C)[C@H]1CC[C@H]1C[C@@H]3C[C@@]12CC[C@]3(O)CO [Aphidicolin, reference compound]					18				No							
COc1ccc(Nc2nc(N3CCN(C)CC3)nc3ccccc23)c(OC)c1 [XXII, 4-Quinazolinamine, N-(2,4-dimethoxyphenyl)-2-(4-methyl-1-piperazinyl)-(9CI)]															effective in blocking the replication of vaccinia virus in cells	
O=S(=O)(c1cc(Cl)ccc1O)c1cc(Cl)ccc1O [XLI, 2,2′-sulfonylbis(4-chlorophenol)]															effective in blocking the replication of vaccinia virus in cells	
O=C(O)Cn1c2ccc(Cl)cc2c2nc3ccccc3nc21 [IX, 6H-Indolo[2,3-b]quinoxaline-6-acetic acid, 9-chloro-(9CI)]															effective in blocking the replication of vaccinia virus in cells	
CCN(CC)CCCC(C)Nc1c2ccc(Cl)cc2nc2ccc(OC)cc12 (stereo not drawn) [Quinacrine, reference compound]					17				Yes							
COc1ccc(-c2cc3ccccn3c2C(=O)c2cccnc2)c(OC)c1 [VII, (2-(2,4-dimethoxyphenyl)indolizin-3-yl)(pyridin-3-yl)methanone]															effective in blocking the replication of vaccinia virus in cells	
Oc1ccc([Te]CCNCC[Te]c2ccc(O)cc2)cc1 [XLII, 4,4′-(2,2′-azanediylbis(ethane-2,1-diyl)bis(tellanediyl))diphenol]															effective in blocking the replication of vaccinia virus in cells	
